Data published in US20200165291A1, “NEUROACTIVE STEROIDS, COMPOSITIONS, AND USES THEREOF” (Sage Therapeutics, Inc., priority 2014, published 2020).

Tests used:
[1] = target: T1, recombinant α1β2γ2 GABAA receptors (Homo sapiens, UniProt P14867+P47870); assay: Patch clamp electrophysiology, QPatch, LTK cells; assay type: cell-based; conditions: 10 μM test article, GABA EC20 = 2 μM, read-out: GABA (α1β2γ2) Qpatch in Ltk, % efficacy at 10 μM
T1 construct: expressed in transfected cells

[2] = target: T2, recombinant α4β3δ GABAA receptors (Homo sapiens, UniProt P28472+P48169); assay: Patch clamp electrophysiology, manual patch, CHO cells; assay type: cell-based; conditions: 10 μM test article, GABA EC20 = 2 μM, read-out: GABA (α4β3δ) Manual patch in CHO, % efficacy at 10 μM
T2 construct: expressed in transfected cells; host or cells: CHO cells (transient transfection, Lipofectamine)

[3] = tested on: PTZ-treated male CD-1 mice; assay: Acute PTZ (pentylenetetrazol-induced seizure) method in mice; assay type: in vivo; conditions: Mus musculus, PO (oral administration), latency to tonic seizures, read-out: Anticonvulsive Effect Dose (minimal effective anticonvulsant dose)
Experimental: The anticonvulsant effect of test compounds were assessed in the pentylenetetazol-induced seizure assay in mice similar to methods described in Giardina & Gasior (2009) Curr Protoc Pharmacol., Chapter 5. Male CD-1 mice were housed in groups of five under controlled conditions (temperature of 22±2° C. and 12:12 light-dark cycle, lights on at 8:00 am) and water and food were available ad libitum. The mice were housed for 1 week prior to behavioral testing, at which time they weighed 25-35 g. Pentylenetetrazol (PTZ, Sigma) was dissolved in sterile 0.9% saline at a concentration of 12 mg/mL concentration for subcutaneous administration. Test compounds were formulated and administered via oral gavage or intraperitoneal injection at a predetermined time-point (typically 30 or 60 minutes) prior to PTZ injection. All solutions were made fresh and were given in a volume of 10 ml/kg body weight.
Mice were acclimated to the test room for at least 30 min before compound administration. Mice were randomized into at least four test groups (vehicle and at least three doses of the test compound) with 10 mice per group. […] Following the drug pretreatment time the mice were injected s.c. with PTZ (120 mg/kg). Immediately following the PTZ injection, mice were individually placed into observation chambers (25×15×15 cm) and a three-channel timer was started. Each mouse was continuously observed for 30 min and the following behaviors were recorded by observers blinded to the treatments: 1) latency to clonic convulsions that persist for 3 sec and followed by an absence of righting reflex 2) latency to tonic convulsions, characterized by the rigid extension of all four limbs that exceeded a 90 degree angle with the body 3) latency to death 4) number of clonic and tonic convulsions. Data are presented as mean±S.E.M and one-way analysis of variance with Dunnett's or Bonferroni's post-hoc test was used to detect significant differences in latency and number between the vehicle and dose group. p values<0.05 were regarded as statistically significant.

[4] = target: [35S]-TBPS binding, rat brain cortical membranes (GABA receptor complex); assay: [35S]-TBPS binding (steroid inhibition of TBPS binding); conditions: in the presence of 5 μM GABA, read-out: 35S-TBPS Radioligand Displacement
Experimental: [35S]-t-Butylbicyclophosphorothionate (TBPS) binding assays using rat brain cortical membranes in the presence of 5 μM GABA has been described (Gee et al, J. Pharmacol. Exp. Ther. 1987, 241, 346-353; Hawkinson et al, Mol. Pharmacol. 1994, 46, 977-985; Lewin, A. H et al., Mol. Pharmacol. 1989, 35, 189-194).
Briefly, cortices are rapidly removed following decapitation of carbon dioxide-anesthetized Sprague-Dawley rats (200-250 g). The cortices are homogenized in 10 volumes of ice-cold 0.32 M sucrose using a glass/teflon homogenizer and centrifuged at 1500×g for 10 min at 4° C. The resultant supernatants are centrifuged at 10,000×g for 20 min at 4° C. to obtain the P2 pellets. The P2 pellets are resuspended in 200 mM NaCl/50 mM Na-K phosphate pH 7.4 buffer and centrifuged at 10,000×g for 10 min at 4° C. This washing procedure is repeated twice and the pellets are resuspended in 10 volumes of buffer. Aliquots (100 μL) of the membrane suspensions are incubated with 3 nM [^35S]-TBPS and 5 μL aliquots of test drug dissolved in dimethyl sulfoxide (DMSO) (final 0.5%) in the presence of 5 μM GABA. The incubation is brought to a final volume of 1.0 mL with buffer. Nonspecific binding is determined in the presence of 2 μM unlabeled TBPS and ranged from 15 to 25%. Following a 90 min incubation at room temp, the assays are terminated by filtration through glass fiber filters (Schleicher and Schuell No. 32) using a cell harvester (Brandel) and rinsed three times with ice-cold buffer. Filter bound radioactivity is measured by liquid scintillation spectrometry. Non-linear curve fitting of the overall data for each drug averaged for each concentration is done using Prism (GraphPad). […] The concentration of test compound producing 50% inhibition (IC50) of specific binding and the maximal extent of inhibition (Imax) are determined for the individual experiments with the same model used for the overall data and then the means±SEM.s of the individual experiments are calculated.
Various compounds are or can be screened to determine their potential as modulators of [^35S]-TBPS binding in vitro. These assays are or can be performed in accordance with the above discussed procedures.

T1 sequence (P14867 28-456): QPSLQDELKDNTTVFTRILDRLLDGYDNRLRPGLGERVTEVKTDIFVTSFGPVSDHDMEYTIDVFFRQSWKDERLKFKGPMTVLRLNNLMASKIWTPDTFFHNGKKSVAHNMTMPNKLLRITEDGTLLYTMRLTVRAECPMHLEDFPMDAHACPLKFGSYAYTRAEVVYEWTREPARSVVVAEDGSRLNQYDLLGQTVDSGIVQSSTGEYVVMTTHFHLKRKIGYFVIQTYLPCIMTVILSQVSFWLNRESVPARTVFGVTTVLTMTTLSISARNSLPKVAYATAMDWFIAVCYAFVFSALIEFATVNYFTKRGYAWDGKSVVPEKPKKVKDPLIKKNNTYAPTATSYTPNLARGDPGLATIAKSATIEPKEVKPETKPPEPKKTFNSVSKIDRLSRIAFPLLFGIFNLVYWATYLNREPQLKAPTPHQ
T1 sequence (P47870 25-512 limits assumed): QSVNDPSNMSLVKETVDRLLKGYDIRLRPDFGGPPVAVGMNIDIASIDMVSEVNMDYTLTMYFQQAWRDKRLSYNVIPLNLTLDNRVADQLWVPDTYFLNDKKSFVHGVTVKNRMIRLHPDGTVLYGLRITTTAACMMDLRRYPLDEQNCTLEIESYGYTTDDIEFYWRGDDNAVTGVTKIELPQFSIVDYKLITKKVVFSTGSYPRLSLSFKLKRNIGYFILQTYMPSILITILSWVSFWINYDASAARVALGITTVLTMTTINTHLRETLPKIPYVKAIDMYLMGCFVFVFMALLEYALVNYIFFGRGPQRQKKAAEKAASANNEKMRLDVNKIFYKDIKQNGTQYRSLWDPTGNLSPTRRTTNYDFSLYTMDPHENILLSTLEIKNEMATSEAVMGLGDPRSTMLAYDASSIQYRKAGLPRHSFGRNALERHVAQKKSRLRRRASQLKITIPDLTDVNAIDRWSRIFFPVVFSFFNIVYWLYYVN
T1 sequence (P18507 40-475 partner): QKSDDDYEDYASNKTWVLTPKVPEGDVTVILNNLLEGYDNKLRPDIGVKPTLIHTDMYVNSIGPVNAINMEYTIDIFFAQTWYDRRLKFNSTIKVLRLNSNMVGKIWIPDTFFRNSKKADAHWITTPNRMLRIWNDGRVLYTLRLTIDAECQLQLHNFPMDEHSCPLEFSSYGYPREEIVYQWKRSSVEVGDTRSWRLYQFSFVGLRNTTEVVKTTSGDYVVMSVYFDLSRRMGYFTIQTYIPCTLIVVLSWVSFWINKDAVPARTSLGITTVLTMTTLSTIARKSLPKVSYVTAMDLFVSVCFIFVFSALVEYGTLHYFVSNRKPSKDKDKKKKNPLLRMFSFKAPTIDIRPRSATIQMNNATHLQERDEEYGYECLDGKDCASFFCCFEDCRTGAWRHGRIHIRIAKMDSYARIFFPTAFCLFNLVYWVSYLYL
T2 sequence (P48169 36-554): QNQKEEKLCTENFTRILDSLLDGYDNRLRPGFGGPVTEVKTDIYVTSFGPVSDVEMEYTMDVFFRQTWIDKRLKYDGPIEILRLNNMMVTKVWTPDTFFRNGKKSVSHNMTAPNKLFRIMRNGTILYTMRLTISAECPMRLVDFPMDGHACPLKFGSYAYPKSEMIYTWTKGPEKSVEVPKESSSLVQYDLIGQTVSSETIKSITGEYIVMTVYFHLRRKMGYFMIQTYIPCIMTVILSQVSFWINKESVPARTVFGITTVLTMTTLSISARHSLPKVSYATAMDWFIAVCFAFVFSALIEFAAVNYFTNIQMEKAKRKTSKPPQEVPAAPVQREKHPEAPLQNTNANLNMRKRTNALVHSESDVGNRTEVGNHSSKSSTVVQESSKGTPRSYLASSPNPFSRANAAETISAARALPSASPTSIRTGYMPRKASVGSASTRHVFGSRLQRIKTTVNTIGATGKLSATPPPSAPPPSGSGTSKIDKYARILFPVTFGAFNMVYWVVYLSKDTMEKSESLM
T2 sequence (P28472 26-473): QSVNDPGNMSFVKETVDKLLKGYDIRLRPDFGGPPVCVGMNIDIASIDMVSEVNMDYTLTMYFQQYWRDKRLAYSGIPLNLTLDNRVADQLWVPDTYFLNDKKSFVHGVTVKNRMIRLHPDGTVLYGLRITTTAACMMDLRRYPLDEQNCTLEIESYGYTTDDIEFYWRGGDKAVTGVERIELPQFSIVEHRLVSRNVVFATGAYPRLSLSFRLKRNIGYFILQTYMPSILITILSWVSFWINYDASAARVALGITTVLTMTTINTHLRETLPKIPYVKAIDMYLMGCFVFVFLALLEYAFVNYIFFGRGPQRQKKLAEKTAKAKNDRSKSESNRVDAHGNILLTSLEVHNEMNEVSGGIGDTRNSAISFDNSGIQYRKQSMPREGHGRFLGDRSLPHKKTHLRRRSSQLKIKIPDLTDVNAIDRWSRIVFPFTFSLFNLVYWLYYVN
T2 sequence (O14764 17-452 partner limits assumed): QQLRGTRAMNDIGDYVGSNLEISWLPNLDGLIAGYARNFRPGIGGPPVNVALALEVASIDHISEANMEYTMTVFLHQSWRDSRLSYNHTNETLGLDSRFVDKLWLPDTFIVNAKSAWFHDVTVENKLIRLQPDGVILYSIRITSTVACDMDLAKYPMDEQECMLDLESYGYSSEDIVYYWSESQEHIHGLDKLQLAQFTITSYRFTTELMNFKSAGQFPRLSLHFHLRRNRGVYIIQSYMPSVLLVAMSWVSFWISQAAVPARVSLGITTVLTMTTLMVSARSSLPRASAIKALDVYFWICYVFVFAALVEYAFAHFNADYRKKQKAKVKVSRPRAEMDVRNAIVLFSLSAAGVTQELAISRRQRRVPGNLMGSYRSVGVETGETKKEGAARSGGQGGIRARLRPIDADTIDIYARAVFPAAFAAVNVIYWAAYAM

SMILES | Emax at 10 µM [1] | Emax at 10 µM [2] | minimal effective dose [3] | IC50 [4]
COC[C@@]1(O)CC[C@H]2[C@@H](CC[C@@H]3[C@@H]2CC[C@]2(C)[C@@H](C(=O)Cn4nnnc4C)CC[C@@H]32)C1 [SI-3] | 100 to 500% | > 500% | ≤ 1 mg/kg | 
C[C@@H]1C[C@H]2[C@@H](CC[C@@H]3[C@@H]2CC[C@]2(C)[C@@H](C(=O)Cn4nccn4)CC[C@@H]32)C[C@]1(C)O [SN-2] | 100 to 500% | 100 to 500% |  | 1 to 50 nM
CC[C@@]1(O)CC[C@H]2[C@@H](CC[C@@H]3[C@@H]2CC[C@]2(C)[C@@H](C(=O)Cn4nccn4)CC[C@@H]32)C1 [SP-2] | 100 to 500% |  |  | 100 to 500 nM
CC[C@@]1(O)CC[C@H]2[C@@H](CC[C@@H]3[C@@H]2CC[C@]2(C)[C@@H](C(=O)Cn4nnnc4C)CC[C@@H]32)C1 [SP-4] | 10 to 100% |  |  | > 500 nM
CO[C@H]1C[C@H]2[C@@H](CC[C@@H]3[C@@H]2CC[C@]2(C)[C@@H](C(=O)Cn4ccnn4)CC[C@@H]32)C[C@]1(C)O [SU-1] | 100 to 500% |  |  | 100 to 500 nM
CO[C@H]1C[C@H]2[C@@H](CC[C@@H]3[C@@H]2CC[C@]2(C)[C@@H](C(=O)Cn4nccn4)CC[C@@H]32)C[C@]1(C)O [SU-2] | 100 to 500% | > 500% |  | 50 to 100 nM
C[C@@]1(O)CC[C@@H]2[C@H]3CC[C@]4(C)[C@@H](C(=O)Cn5ccnn5)CC[C@H]4[C@@H]3C[C@@H](F)[C@H]2C1 [SV-1] | 100 to 500% | 100 to 500% | 1 to 3 mg/kg | 100 to 500 nM
C[C@@]1(O)CC[C@@H]2[C@H]3CC[C@]4(C)[C@@H](C(=O)Cn5cnnn5)CC[C@H]4[C@@H]3C[C@@H](F)[C@H]2C1 [SV-4] | 100 to 500% | 100 to 500% | 1 to 3 mg/kg | 
Cc1nnnn1CC(=O)[C@H]1CC[C@H]2[C@@H]3C[C@@H](F)[C@H]4C[C@](C)(O)CC[C@@H]4[C@H]3CC[C@]12C [SV-6] | 100 to 500% | 100 to 500% |  | 
CO[C@@H]1C[C@@H]2[C@H](CC[C@]3(C)[C@@H](C(=O)Cn4ccnn4)CC[C@@H]23)[C@H]2CC[C@@](C)(O)C[C@@H]21 [SW-1] | 100 to 500% |  |  | > 500 nM
CCO[C@H]1C[C@H]2[C@@H](CC[C@@H]3[C@@H]2CC[C@]2(C)[C@@H](C(=O)Cn4ccnn4)CC[C@@H]32)C[C@]1(C)O [SY-1] | 100 to 500% |  |  | 100 to 500 nM
CCO[C@H]1C[C@H]2[C@@H](CC[C@@H]3[C@@H]2CC[C@]2(C)[C@@H](C(=O)Cn4nccn4)CC[C@@H]32)C[C@]1(C)O [SY-2] | 100 to 500% | > 500% |  | 100 to 500 nM
C[C@H]1C[C@H]2[C@@H](CC[C@@H]3[C@@H]2CC[C@]2(C)[C@@H](C(=O)Cn4ccnn4)CC[C@@H]32)C[C@]1(C)O [SZ-1] | 100 to 500% |  |  | 50 to 100 nM
C[C@H]1C[C@H]2[C@@H](CC[C@@H]3[C@@H]2CC[C@]2(C)[C@@H](C(=O)Cn4nccn4)CC[C@@H]32)C[C@]1(C)O [SZ-2] | 100 to 500% | 100 to 500% |  | 50 to 100 nM
